13 compounds from PubChem BioAssay (NCI) can be followed below.

Among the test systems are NCI-H522 lung; IGROV1 ovarian; SNB-75 CNS; HCT-116 colon; COLO 205 colon; UO-31 renal; TK-10 renal; MDA-N; HOP-92 NSCLC; SR leukemia.
Common to all, as to assay: growth of human tumour cells (NCI), 48 h

The structures appear in SMILES notation. “And” between values parts separate entries of the source, which are not always exact repeats. Identical values can stand only once.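 Where inhibition never reached the appropriate level, the endpoint shown equals the highest concentration tested. Otherwise, values were interpolated linearly from a five-concentration, 48-hour dose response in 96-well plates. GI50: concentration for 50% inhibition of growth. Definition used: TGI = concentration required for complete inhibition of growth.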

On to `C/C=C\C(CC(=O)NCCC1CN(C(=O)c2ccccc2)c2ccccc21)CC(=O)OC` (configuration not stated), for which the TGI in the experiment on NCI-H522 lung, with IGROV1 ovarian, with SNB-75 CNS, with HCT-116 colon, in the experiment on COLO 205 colon and in the experiment on UO-31 renal was above 100 µM throughout. Besides, the TGI in the experiment with TK-10 renal, with MDA-N and in the experiment on HOP-92 NSCLC was above 100 µM throughout.

Consider `CC(C)CCC[C@@H](C)[C@H]1CCC2C3=CCC4C(=O)C=CC(=O)C4C3CC[C@@]21C` (some centres not stated), for which the GI50 is 0.803 µM in the experiment with NCI-H522 lung; 0.26 µM in the experiment with IGROV1 ovarian; 0.0551 µM with HCT-116 colon; 0.0545 µM in the experiment on COLO 205 colon; 0.263 µM with SR leukemia; 0.0721 µM in the experiment with UO-31 renal. Further, the GI50 in the experiment on TK-10 renal is 2.65 µM; in the experiment on HOP-92 NSCLC it was 0.135 µM. The TGI in the experiment on NCI-H522 lung is above 100 µM; in the experiment with IGROV1 ovarian it was 0.719 µM; with HCT-116 colon, 1.03 µM; in the experiment with COLO 205 colon, 0.183 µM; in the experiment with SR leukemia, above 100 µM; in the experiment with UO-31 renal, 0.359 µM. The figures for the TGI with TK-10 renal and in the experiment with HOP-92 NSCLC were above 100 µM and 0.67 µM, respectively.

Regarding `COC(=O)n1c(CBr)c(Br)c2ccccc21`, the TGI with NCI-H522 lung was 34.5 µM; in the experiment on IGROV1 ovarian, 93.1 µM; in the experiment with SNB-75 CNS, 47.1 µM; with HCT-116 colon, above 100 µM; in the experiment with COLO 205 colon, above 100 µM; in the experiment on SR leukemia it was 80.6 µM. Moreover, the values for the TGI in the experiment with UO-31 renal, in the experiment with TK-10 renal and in the experiment with HOP-92 NSCLC were 71.1 µM, 94 µM and 68 µM, respectively.

Consider `Nc1ccc(-n2c(=O)oc3ccc(Cl)cc3c2=O)c(Cl)c1`, for which the GI50 was 0.0741 µM in the experiment on NCI-H522 lung; 0.14 µM in the experiment with IGROV1 ovarian; 0.0894 µM in the experiment with SNB-75 CNS; 0.108 µM with HCT-116 colon; 2.97 µM with COLO 205 colon; 0.0987 µM with SR leukemia. The values for the GI50 with UO-31 renal, in the experiment with TK-10 renal and in the experiment with HOP-92 NSCLC were 0.0872 µM, 0.187 µM and 0.0281 µM, respectively. In addition, the TGI amounted to 0.588 µM in the experiment with NCI-H522 lung; 36.7 µM with IGROV1 ovarian; 0.41 µM with SNB-75 CNS; 0.52 µM in the experiment with HCT-116 colon; 8.26 µM in the experiment on COLO 205 colon; 0.533 µM with UO-31 renal. Also, the TGI in the experiment with TK-10 renal amounted to 20.4 µM; in the experiment on HOP-92 NSCLC it was 0.168 µM.

Consider `Cc1cccc2c1C/C(=C\c1cccc(C)c1C(=O)O)C2=O`, for which the TGI in the experiment on NCI-H522 lung, with IGROV1 ovarian, in the experiment on SNB-75 CNS, in the experiment with HCT-116 colon, in the experiment with COLO 205 colon and in the experiment on SR leukemia was above 100 µM in each case. For the same compound, the TGI in the experiment with UO-31 renal, in the experiment with TK-10 renal and with HOP-92 NSCLC was above 100 µM each time.

`CN(C)CC(NC(NCS)C(=O)NCCNc1ccc(NCCNC(=O)C(NCS)NC(CN(C)C)OCCl)c2c1C(=O)c1c(O)ccc(O)c1C2=O)OCCl` (configuration not stated): the TGI in the experiment on IGROV1 ovarian is 2.49 µM; in the experiment with SNB-75 CNS, 1.77 µM and 0.99 µM; in the experiment on HCT-116 colon, 1.72 µM; in the experiment on COLO 205 colon it was 3.28 µM; in the experiment with UO-31 renal, 1.52 µM; with TK-10 renal, 2.44 µM. This compound yielded a TGI in the experiment with MDA-N of 1.09 µM. The results for the GI50 with SNB-75 CNS and with TK-10 renal were 0.0387 µM and 0.34 µM, respectively.

As to `C[C@H](CCC1=NCCN1)[C@H]1CC[C@H]2[C@@H]3CC[C@@H]4C[C@H](O)CC[C@]4(C)[C@H]3C[C@H](O)[C@]12C`, the TGI in the experiment with NCI-H522 lung was 19.3 µM; with IGROV1 ovarian it was 21.9 µM; in the experiment with SNB-75 CNS, 13.5 µM; in the experiment on HCT-116 colon, above 100 µM; with COLO 205 colon, 23.8 µM; in the experiment with UO-31 renal it was 52.6 µM. In addition, the TGI in the experiment on TK-10 renal came out at 26.9 µM; with MDA-N it was 31 µM; in the experiment on HOP-92 NSCLC it was 30.9 µM.

Turning to `CN1CC2CC(C1)c1cccc(=O)n1C2` (configuration not stated), the TGI in the experiment on NCI-H522 lung, with IGROV1 ovarian, in the experiment on SNB-75 CNS, in the experiment on HCT-116 colon, in the experiment with COLO 205 colon and in the experiment with UO-31 renal was above 100 µM throughout. For the same compound, the TGI in the experiment with TK-10 renal, in the experiment with MDA-N and in the experiment with HOP-92 NSCLC was above 100 µM throughout.

For `COc1ccc2c(c1)CC[C@@H]1[C@@H]2CC[C@]2(C)C(=O)/C(=C/c3cc(OC)c(OC)c(OC)c3)C[C@@H]12`, the TGI is 38.9 µM in the experiment with SNB-75 CNS; above 100 µM with HCT-116 colon; above 100 µM with COLO 205 colon; above 100 µM in the experiment on SR leukemia; above 100 µM with UO-31 renal; 34.2 µM in the experiment on TK-10 renal. This compound also yielded a TGI in the experiment on HOP-92 NSCLC of 45.4 µM.

As for `COc1ccc(/C=C2\CN(C)Cc3c2[nH]c(=O)c(C#N)c3-c2ccc(OC)cc2)cc1`, the TGI in the experiment on NCI-H522 lung, with IGROV1 ovarian, in the experiment with HCT-116 colon, in the experiment with COLO 205 colon, with UO-31 renal and in the experiment on TK-10 renal was above 100 µM throughout. In addition, the TGI in the experiment with MDA-N and in the experiment with HOP-92 NSCLC was above 100 µM throughout.

Take `CC(C)CCC/C(CBr)=C(\Cl)CCl`: the TGI in the experiment with NCI-H522 lung is 0.409 µM; with IGROV1 ovarian it was 4.05 µM; in the experiment on SNB-75 CNS, 4.71 µM; in the experiment on HCT-116 colon, 7.03 µM; in the experiment on COLO 205 colon it was 3.54 µM; in the experiment with UO-31 renal, 8.4 µM. Besides, the values for the TGI in the experiment on TK-10 renal, with MDA-N and with HOP-92 NSCLC were 3.72 µM, 3.91 µM and 4.54 µM, respectively.

In the case of `Nc1nc2cc(CNc3ccc(C(=O)NC(CCC(=O)O)C(=O)O)cc3)ccc2nc1-c1ccccc1` (configuration not stated), the TGI with NCI-H522 lung, in the experiment on IGROV1 ovarian, in the experiment on SNB-75 CNS, with HCT-116 colon, in the experiment with COLO 205 colon and in the experiment on UO-31 renal was above 10 µM in each case. Moreover, the TGI in the experiment on TK-10 renal and in the experiment on MDA-N was above 10 µM in each case.

Consider `COc1ccc2c(c1)-c1oc3ccccc3c(=O)c1CO2`, for which the TGI in the experiment on NCI-H522 lung is above 100 µM; in the experiment on IGROV1 ovarian, above 100 µM; in the experiment on SNB-75 CNS, 73 µM; with HCT-116 colon it was above 100 µM; with COLO 205 colon, above 100 µM; in the experiment with UO-31 renal, 88.4 µM. Also, the TGI in the experiment on TK-10 renal is above 100 µM; with MDA-N it was 78.1 µM.
